Patent US9981944B2, “GDF-8 inhibitors” (Rigel Pharmaceuticals, Inc., priority 2015, dated 2018)

Tests used:
HIS-TGFβR2 WT = HIS-TGFβR2 WT (Homo sapiens (Human), UniProt P37173); test: HTRF probe displacement assay, HIS-TGFβR2 WT; assay type: binding; conditions: 1 nM HIS-TGFβR2 WT, 1 hour at room temperature, read-out: TGFBR2WT IC50
Method: (§1) Compounds were dissolved at 10 mM in dimethylsulfoxide (DMSO) and evaluated at eleven concentrations. IC50 values were derived by non-linear regression analysis.

HIS-TGFβR1 T204D = HIS-TGFβR1 T204D (Homo sapiens (Human), UniProt P36897, T204D); test: HTRF probe displacement assay, HIS-TGFβR1 T204D; assay type: binding; conditions: 1 nM HIS-TGFβR1 T204D, 1 hour at room temperature, read-out: TGFBR1T204D IC50
Sequence of HIS-TGFβR1 T204D (P36897 34-503 T204D): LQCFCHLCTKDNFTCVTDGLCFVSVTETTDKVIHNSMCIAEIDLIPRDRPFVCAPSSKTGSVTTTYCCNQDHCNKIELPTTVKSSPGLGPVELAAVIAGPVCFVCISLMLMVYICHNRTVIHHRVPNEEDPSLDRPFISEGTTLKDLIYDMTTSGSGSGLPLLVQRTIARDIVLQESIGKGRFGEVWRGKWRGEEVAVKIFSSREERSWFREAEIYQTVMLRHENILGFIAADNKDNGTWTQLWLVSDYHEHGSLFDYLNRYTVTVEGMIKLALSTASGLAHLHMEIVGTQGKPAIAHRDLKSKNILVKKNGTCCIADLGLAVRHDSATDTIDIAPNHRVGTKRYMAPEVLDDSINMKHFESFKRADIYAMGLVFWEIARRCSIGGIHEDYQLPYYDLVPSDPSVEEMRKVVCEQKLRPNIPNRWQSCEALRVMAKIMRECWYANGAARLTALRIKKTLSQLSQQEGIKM
Method: as §1

Sequence of HIS-TGFβR2 WT (P37173 23-567): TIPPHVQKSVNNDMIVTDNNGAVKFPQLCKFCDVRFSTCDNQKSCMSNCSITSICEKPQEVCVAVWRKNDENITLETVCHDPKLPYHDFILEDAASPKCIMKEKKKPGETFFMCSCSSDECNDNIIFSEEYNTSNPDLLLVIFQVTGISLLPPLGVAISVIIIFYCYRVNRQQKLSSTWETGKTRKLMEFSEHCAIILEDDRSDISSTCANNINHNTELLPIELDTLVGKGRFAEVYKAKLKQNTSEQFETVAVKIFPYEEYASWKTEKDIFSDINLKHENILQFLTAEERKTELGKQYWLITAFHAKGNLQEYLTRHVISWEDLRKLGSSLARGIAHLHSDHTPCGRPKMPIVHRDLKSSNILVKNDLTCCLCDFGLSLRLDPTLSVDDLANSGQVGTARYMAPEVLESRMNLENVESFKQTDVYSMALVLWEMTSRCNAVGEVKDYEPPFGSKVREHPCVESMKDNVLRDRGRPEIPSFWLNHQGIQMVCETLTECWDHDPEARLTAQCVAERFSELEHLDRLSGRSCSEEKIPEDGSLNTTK

| SMILES | IC50 (HIS-TGFβR2 WT) | IC50 (HIS-TGFβR1 T204D) |
| --- | --- | --- |
| Cc1nc(-c2ncccc2-c2ccc3ncc(C#N)n3c2)ccc1F [Compound 15, 6-(5′-fluoro-6′-methyl-[2,2′-bipyridin]-3-yl)imidazo[1,2-a]pyridine-3-carbonitrile] | > 15 µM | 10 nM |
| COc1cccc(-c2ncccc2-c2ccc3ncc(C#N)n3c2)n1 [Compound 17, 6-(6′-methoxy-[2,2′-bipyridin]-3-yl)imidazo[1,2-a]pyridine-3-carbonitrile] | > 15 µM | 9 nM |
| Cc1nc(-c2ncccc2-c2ccc3ncc(C(N)=O)n3c2)ccc1F [Compound 19, 6-(5′-fluoro-6′-methyl-[2,2′-bipyridin]-3-yl)imidazo[1,2-a]pyridine-3-carboxamide] | – | 1 nM |
| N#Cc1cnc2ccc(-c3cccnc3-c3ccc(F)cn3)cn12 [Compound 20, 6-(5′-fluoro-[2,2′-bipyridin]-3-yl)imidazo[1,2-a]pyridine-3-carbonitrile] | > 15 µM | 103 nM |
| NC(=O)c1cnc2ccc(-c3cccnc3-c3ccc(F)cn3)cn12 [Compound 21, 6-(5′-fluoro-[2,2′-bipyridin]-3-yl)imidazo[1,2-a]pyridine-3-carboxamide] | – | 5 nM |
| N#Cc1cnc2ccc(-c3cccnc3-c3ccc(F)c(C(F)F)n3)cn12 [Compound 23, 6-(6′-(difluoromethyl)-5′-fluoro-[2,2′-bipyridin]-3-yl)imidazo[1,2-a]pyridine-3-carbonitrile] | > 15 µM | 130 nM |
| NC(=O)c1cnc2ccc(-c3cccnc3-c3ccc(F)c(C(F)F)n3)cn12 [Compound 24, 6-(6′-(difluoromethyl)-5′-fluoro-[2,2′-bipyridin]-3-yl)imidazo[1,2-a]pyridine-3-carboxamide] | > 15 µM | – |
| NC(=O)c1cnc2ccc(-c3cccnc3-c3ccc(C(=O)O)cn3)cn12 [Compound 27, 3′-(3-carbamoylimidazo[1,2-a]pyridin-6-yl)-[2,2′-bipyridine]-5-carboxylic acid] | > 15 µM | 14300 nM |
| N#Cc1cnc2ccc(-c3cccnc3-c3cccc(C(F)F)n3)cn12 [Compound 28, 6-(6′-(difluoromethyl)-[2,2′-bipyridin]-3-yl)imidazo[1,2-a]pyridine-3-carbonitrile] | > 15 µM | 9 nM |
| CCc1cccc(-c2ncccc2-c2ccc3ncc(C#N)n3c2)n1 [Compound 30, 6-(6′-ethyl-[2,2′-bipyridin]-3-yl)imidazo[1,2-a]pyridine-3-carbonitrile] | > 15 µM | – |
| CC(C)c1cccc(-c2ncccc2-c2ccc3ncc(C#N)n3c2)n1 [Compound 31, 6-(6′-isopropyl-[2,2′-bipyridin]-3-yl)imidazo[1,2-a]pyridine-3-carbonitrile] | > 15 µM | 307 nM |
| N#Cc1cnc2ccc(-c3cccnc3-c3cccc(C4CC4)n3)cn12 [Compound 34, 6-(6′-cyclopropyl-[2,2′-bipyridin]-3-yl)imidazo[1,2-a]pyridine-3-carbonitrile] | > 15 µM | 19 nM |
| NC(=O)c1cnc2ccc(-c3cccnc3-c3cccc(C4CC4)n3)cn12 [Compound 35, 6-(6′-cyclopropyl-[2,2′-bipyridin]-3-yl)imidazo[1,2-a]pyridine-3-carboxamide] | > 15 µM | 1 nM |
| N#Cc1cnc2ccc(-c3cccnc3-c3cccc(F)n3)cn12 [Compound 36, 6-(6′-fluoro-[2,2′-bipyridin]-3-yl)imidazo[1,2-a]pyridine-3-carbonitrile] | > 15 µM | 120 nM |
| NC(=O)c1cnc2ccc(-c3cccnc3-c3cccc(F)n3)cn12 [Compound 37, 6-(6′-fluoro-[2,2′-bipyridin]-3-yl)imidazo[1,2-a]pyridine-3-carboxamide] | – | 4 nM |
| N#Cc1cnc2ccc(-c3cccnc3-c3cccc(OCc4ccccc4)n3)cn12 [Compound 38, 6-(6′-(benzyloxy)-[2,2′-bipyridin]-3-yl)imidazo[1,2-a]pyridine-3-carbonitrile] | > 15 µM | 1920 nM |
| NC(=O)c1cnc2ccc(-c3cccnc3-c3ccccn3)cn12 [Compound 39, 6-([2,2′-bipyridin]-3-yl)imidazo[1,2-a]pyridine-3-carboxamide] | – | 6 nM |
| CC(=O)c1cccc(-c2ncccc2-c2ccc3ncc(C#N)n3c2)n1 [Compound 40, 6-(6′-acetyl-[2,2′-bipyridin]-3-yl)imidazo[1,2-a]pyridine-3-carbonitrile] | > 15 µM | 821 nM |
| CC(C)(O)c1cccc(-c2ncccc2-c2ccc3ncc(C#N)n3c2)n1 [Compound 41] | > 15 µM | 15000 nM |
| Cc1nc(-c2ncccc2-c2ccc3ncc(C(N)=O)n3n2)ccc1F [Compound 43, 6-(5′-fluoro-6′-methyl-[2,2′-bipyridin]-3-yl)imidazo[1,2-b]pyridazine-3-carboxamide] | > 15 µM | 17 nM |
| CS(=O)(=O)Nc1cccc(-c2ncccc2-c2ccc3ncc(C#N)n3c2)n1 [Compound 44, N-(3′-(3-cyanoimidazo[1,2-a]pyridin-6-yl)-[2,2′-bipyridin]-6-yl)methanesulfonamide] | > 15 µM | 1980 nM |
| Cc1cccc(-c2ncccc2-c2ccc3nccn3c2)n1 [Compound 47, 6-(6′-methyl-[2,2′-bipyridin]-3-yl)imidazo[1,2-a]pyridine] | > 15 µM | 3 nM |
| Cc1nc(-c2ncc(F)cc2-c2ccc3ncc(C(N)=O)n3c2)ccc1F [Compound 85, 6-(5,5′-difluoro-6′-methyl-[2,2′-bipyridin]-3-yl)imidazo[1,2-a]pyridine-3-carboxamide] | – | 2 nM |
| CC(=O)Nc1cnc(-c2cccc(C)n2)c(-c2ccc3ncc(C(N)=O)n3c2)c1 [Compound 97, 6-(5-acetamido-6′-methyl-[2,2′-bipyridin]-3-yl)imidazo[1,2-a]pyridine-3-carboxamide] | – | 5 nM |
| Cc1cccc(-c2ncc(N)cc2-c2ccc3ncc(C(=O)O)n3c2)n1 [Compound 99, 6-(5-amino-6′-methyl-[2,2′-bipyridin]-3-yl)imidazo[1,2-a]pyridine-3-carboxylic acid] | – | 4 nM |

Further molecules by falling IC50 (HIS-TGFβR1 T204D), results first:

| IC50 (HIS-TGFβR2 WT) | IC50 (HIS-TGFβR1 T204D) | SMILES |
| --- | --- | --- |
| > 15 µM | 7650 nM | COC(=O)c1ccc(-c2ncccc2-c2ccc3ncc(C(N)=O)n3c2)nc1 [Compound 26, methyl 3′-(3-carbamoylimidazo[1,2-a]pyridin-6-yl)-[2,2′-bipyridine]-5-carboxylate] |
| > 15 µM | 4480 nM | COC(=O)c1ccc(-c2ncccc2-c2ccc3ncc(C#N)n3c2)nc1 [Compound 25, methyl 3′-(3-cyanoimidazo[1,2-a]pyridin-6-yl)-[2,2′-bipyridine]-5-carboxylate] |
| > 15 µM | 907 nM | CC(=O)Nc1cccc(-c2ncccc2-c2ccc3ncc(C#N)n3c2)n1 [Compound 45, N-(3′-(3-cyanoimidazo[1,2-a]pyridin-6-yl)-[2,2′-bipyridin]-6-yl)acetamide] |
| > 15 µM | 207 nM | N#Cc1cnc2ccc(-c3cccnc3-c3cc(F)ccn3)cn12 [Compound 16, 6-(4′-fluoro-[2,2′-bipyridin]-3-yl)imidazo[1,2-a]pyridine-3-carbonitrile] |
| > 15 µM | 103 nM | N#Cc1cnc2ccc(-c3cccnc3-c3ccccn3)cn12 [Compound 13, 6-([2,2′-bipyridin]-3-yl)imidazo[1,2-a]pyridine-3-carbonitrile] |
| > 15 µM | 26 nM | Fc1ccc(-c2ncccc2-c2ccc3nccn3c2)nc1C(F)F [Compound 48, 6-(6′-(difluoromethyl)-5′-fluoro-[2,2′-bipyridin]-3-yl)imidazo[1,2-a]pyridine] |
| > 15 µM | 21 nM | Cc1cc(C)nc(-c2ncccc2-c2ccc3ncc(C(N)=O)n3c2)c1 [Compound 42, 6-(4′,6′-dimethyl-[2,2′-bipyridin]-3-yl)imidazo[1,2-a]pyridine-3-carboxamide] |
| > 15 µM | 16 nM | CC(C)c1cccc(-c2ncccc2-c2ccc3ncc(C(N)=O)n3c2)n1 [Compound 32, 6-(6′-isopropyl-[2,2′-bipyridin]-3-yl)imidazo[1,2-a]pyridine-3-carboxamide] |
| – | 5 nM | NC(=O)c1cnc2ccc(-c3cccnc3-c3cc(F)ccn3)cn12 [Compound 22, 6-(4′-fluoro-[2,2′-bipyridin]-3-yl)imidazo[1,2-a]pyridine-3-carboxamide] |
| – | 2 nM | Cc1cccc(-c2ncc(N)cc2-c2ccc3ncc(C(N)=O)n3c2)n1 [Compound 98, 6-(5-amino-6′-methyl-[2,2′-bipyridin]-3-yl)imidazo[1,2-a]pyridine-3-carboxamide] |
| > 15 µM | 1 nM | NC(=O)c1cnc2ccc(-c3cccnc3-c3cccc(C(F)(F)F)n3)cn12 [Compound 18, 6-(6′-(trifluoromethyl)-[2,2′-bipyridin]-3-yl)imidazo[1,2-a]pyridine-3-carboxamide] |
| > 15 µM | 1 nM | NC(=O)c1cnc2ccc(-c3cccnc3-c3cccc(C(F)F)n3)cn12 [Compound 29, 6-(6′-(difluoromethyl)-[2,2′-bipyridin]-3-yl)imidazo[1,2-a]pyridine-3-carboxamide] |
| – | 1 nM | COc1cccc(-c2ncccc2-c2ccc3ncc(C(N)=O)n3c2)n1 [Compound 33, 6-(6′-methoxy-[2,2′-bipyridin]-3-yl)imidazo[1,2-a]pyridine-3-carboxamide] |
| – | 1 nM | Cc1cccc(-c2ncc(F)cc2-c2ccc3ncc(C(N)=O)n3c2)n1 [Compound 82, 6-(5-fluoro-6′-methyl-[2,2′-bipyridin]-3-yl)imidazo[1,2-a]pyridine-3-carboxamide] |
| > 15 µM | 0.4 nM | NC(=O)c1cnc2ccc(-c3cccnc3-c3cccc(Cl)n3)cn12 [Compound 46, 6-(6′-chloro-[2,2′-bipyridin]-3-yl)imidazo[1,2-a]pyridine-3-carboxamide] |
